Laboratory results published in US20260258033A1, “2,7-Naphthyridine Compounds as MASTL Inhibitors” (Pfizer Inc., priority 2022, published 2026).

target: T1, Full-length human recombinant N-term FLAG-tagged MASTL protein (Homo sapiens, UniProt Q96GX5); assay: MASTL enzyme kinase assay (CHEF PhosphoSens); conditions: MASTL Ki (nM), 3 nM MASTL, 1 mM ATP, room temperature; geometric mean of at least 3 independent determinations (* denotes n = 2)
T1 sequence (Q96GX5 1-879): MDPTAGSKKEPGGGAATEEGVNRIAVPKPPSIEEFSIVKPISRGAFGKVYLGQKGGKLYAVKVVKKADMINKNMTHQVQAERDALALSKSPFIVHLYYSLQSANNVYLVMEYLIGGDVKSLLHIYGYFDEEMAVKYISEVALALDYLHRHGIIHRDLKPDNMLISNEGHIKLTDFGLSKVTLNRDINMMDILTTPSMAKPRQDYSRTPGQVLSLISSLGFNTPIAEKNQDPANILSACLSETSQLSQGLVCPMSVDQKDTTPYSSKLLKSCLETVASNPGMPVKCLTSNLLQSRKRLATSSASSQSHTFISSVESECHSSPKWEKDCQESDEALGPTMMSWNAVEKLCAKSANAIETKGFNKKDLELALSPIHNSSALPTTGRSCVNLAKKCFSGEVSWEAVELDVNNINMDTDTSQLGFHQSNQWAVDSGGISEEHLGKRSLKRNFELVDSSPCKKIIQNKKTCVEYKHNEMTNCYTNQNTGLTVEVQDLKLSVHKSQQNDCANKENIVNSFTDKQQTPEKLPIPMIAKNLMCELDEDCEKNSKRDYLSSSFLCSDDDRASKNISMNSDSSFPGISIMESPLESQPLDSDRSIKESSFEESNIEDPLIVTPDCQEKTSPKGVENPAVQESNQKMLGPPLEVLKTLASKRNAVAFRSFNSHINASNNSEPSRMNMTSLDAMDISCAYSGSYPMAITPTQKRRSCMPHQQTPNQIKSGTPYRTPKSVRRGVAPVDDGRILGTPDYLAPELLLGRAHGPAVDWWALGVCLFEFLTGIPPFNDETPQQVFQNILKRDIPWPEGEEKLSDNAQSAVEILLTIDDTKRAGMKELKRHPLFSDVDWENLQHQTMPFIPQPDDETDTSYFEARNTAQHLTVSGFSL
Description: MASTL enzyme kinase assay was used to measure the inhibition constant (Ki) of Examples of the present invention.
Full-length human recombinant N-term FLAG-tagged MASTL protein (construct LJIC-3077G2), activated by CDK1, was produced at Pfizer Inc by expression in baculovirus-infected insect cells. All reagents were purchased from Sigma-Aldrich, Inc (St. Louis, MO), unless specified otherwise. Tween™ 20 detergent (10% Solution) was purchased from EMD Millipore Corp (Billerica, MA). The CHEF phosphoacceptor peptide substrate (AQT0693) was purchased from AssayQuant technologies, Inc (Marlboro, MA). […] The reactions contained 1 mM ATP and were initiated by the addition of enzyme. Initial reaction velocities were determined by following the fluorescence (λex=360 nm, λem=485 nm) of appropriate CHEF peptide substrate for 120 minutes in an end-point mode in a SpectraMax Paradigm Microplate Reader (Molecular Devices, LLC. San Jose, California). The extents of reactions were estimated to be <20%.

Row | Compound | Ki
1 | CCC1(NC)CCc2c1ccnc2Nc1cc2cc(-c3cnnn3C)nc(N)c2cn1 (single isomer, unassigned) [Example 3, N^6-(5-ethyl-5-(methylamino)-6,7-dihydro-5H-cyclopenta[c]pyridin-1-yl)-3-(1-methyl-1H-1,2,3-triazol-5-yl)-2,7-naphthyridine-1,6-diamine] | 0.36 nM
2 | CCC1(NC)CCc2c1ccnc2Nc1cc2cc(-c3cnnn3C)nc(N)c2cn1 (single isomer, unassigned) [Example 4, N^6-(5-ethyl-5-(methylamino)-6,7-dihydro-5H-cyclopenta[c]pyridin-1-yl)-3-(1-methyl-1H-1,2,3-triazol-5-yl)-2,7-naphthyridine-1,6-diamine] | 0.47 nM
3 | CCC1(NC)CCc2cnc(Nc3cc4cc(-c5cnnn5C)nc(N)c4cn3)cc21 (single isomer, unassigned) [Example 5, N^6-(5-ethyl-5-(methylamino)-6,7-dihydro-5H-cyclopenta[c]pyridin-3-yl)-3-(1-methyl-1H-1,2,3-triazol-5-yl)-2,7-naphthyridine-1,6-diamine] | 0.033 nM
4 | CCC1(NC)CCc2cnc(Nc3cc4cc(-c5cnnn5C)nc(N)c4cn3)cc21 (single isomer, unassigned) [Example 6, N^6-(5-ethyl-5-(methylamino)-6,7-dihydro-5H-cyclopenta[c]pyridin-3-yl)-3-(1-methyl-1H-1,2,3-triazol-5-yl)-2,7-naphthyridine-1,6-diamine] | 0.076 nM
5 | CCC(N)c1cc(Nc2cc3cc(-c4cnnn4C)nc(N)c3cn2)ncc1C (single isomer, unassigned) [Example 13, N^6-(4-(1-aminopropyl)-5-methylpyridin-2-yl)-3-(1-methyl-1H-1,2,3-triazol-5-yl)-2,7-naphthyridine-1,6-diamine] | 0.065 nM
6 | CCC(N)c1cc(Nc2cc3cc(-c4cnnn4C)nc(N)c3cn2)ncc1C (single isomer, unassigned) [Example 14, N^6-(4-(1-aminopropyl)-5-methylpyridin-2-yl)-3-(1-methyl-1H-1,2,3-triazol-5-yl)-2,7-naphthyridine-1,6-diamine] | 0.098 nM
7 | Cn1nncc1-c1cc2cc(Nc3cc(C(N)CC(F)(F)F)ccn3)ncc2c(N)n1 (single isomer, unassigned) [Example 17, N^6-(4-(1-amino-3,3,3-trifluoropropyl)pyridin-2-yl)-3-(1-methyl-1H-1,2,3-triazol-5-yl)-2,7-naphthyridine-1,6-diamine] | 0.12 nM
8 | Cn1nncc1-c1cc2cc(Nc3cc(C(N)CC(F)(F)F)ccn3)ncc2c(N)n1 (single isomer, unassigned) [Example 18, N^6-(4-(1-amino-3,3,3-trifluoropropyl)pyridin-2-yl)-3-(1-methyl-1H-1,2,3-triazol-5-yl)-2,7-naphthyridine-1,6-diamine] | 0.088 nM
9 | CNC(C)(c1ccnc(Nc2cc3cc(-c4cnnn4C)nc(N)c3cn2)c1)C1CC1 (single isomer, unassigned) [Example 19, N^6-(4-(1-cyclopropyl-1-(methylamino)ethyl)pyridin-2-yl)-3-(1-methyl-1H-1,2,3-triazol-5-yl)-2,7-naphthyridine-1,6-diamine] | 0.047 nM
10 | CNC(C)(c1ccnc(Nc2cc3cc(-c4cnnn4C)nc(N)c3cn2)c1)C1CC1 (single isomer, unassigned) [Example 20, N^6-(4-(1-cyclopropyl-1-(methylamino)ethyl)pyridin-2-yl)-3-(1-methyl-1H-1,2,3-triazol-5-yl)-2,7-naphthyridine-1,6-diamine] | 0.049 nM
11 | Cn1nncc1-c1cc2cc(Nc3cc(C(C)(N)CC(F)(F)F)ccn3)ncc2c(N)n1 (single isomer, unassigned) [Example 25, N^6-(4-(2-amino-4,4,4-trifluorobutan-2-yl)pyridin-2-yl)-3-(1-methyl-1H-1,2,3-triazol-5-yl)-2,7-naphthyridine-1,6-diamine] | 0.078 nM
12 | Cn1nncc1-c1cc2cc(Nc3cc(C(C)(N)CC(F)(F)F)ccn3)ncc2c(N)n1 (single isomer, unassigned) [Example 26, N^6-(4-(2-amino-4,4,4-trifluorobutan-2-yl)pyridin-2-yl)-3-(1-methyl-1H-1,2,3-triazol-5-yl)-2,7-naphthyridine-1,6-diamine] | 0.075 nM
13 | Cn1nncc1-c1cc2cc(Nc3cc(C(C)(N)C(F)(F)F)ccn3)ncc2c(N)n1 (single isomer, unassigned) [Example 28, N^6-(4-(2-amino-1,1,1-trifluoropropan-2-yl)pyridin-2-yl)-3-(1-methyl-1H-1,2,3-triazol-5-yl)-2,7-naphthyridine-1,6-diamine] | 0.093 nM
14 | Cn1nncc1-c1cc2cc(Nc3cc(C(C)(N)C(F)(F)F)ccn3)ncc2c(N)n1 (single isomer, unassigned) [Example 29, N^6-(4-(2-amino-1,1,1-trifluoropropan-2-yl)pyridin-2-yl)-3-(1-methyl-1H-1,2,3-triazol-5-yl)-2,7-naphthyridine-1,6-diamine] | 0.17 nM
15 | CNC(C)(c1ccnc(Nc2cc3cc(-c4cnnn4C)nc(N)c3cn2)c1)C(C)C (single isomer, unassigned) [Example 30, 3-(1-methyl-1H-1,2,3-triazol-5-yl)-N^6-(4-(3-methyl-2-(methylamino)butan-2-yl)pyridin-2-yl)-2,7-naphthyridine-1,6-diamine] | 0.036 nM
16 | CNC(C)(c1ccnc(Nc2cc3cc(-c4cnnn4C)nc(N)c3cn2)c1)C(C)C (single isomer, unassigned) [Example 31, 3-(1-methyl-1H-1,2,3-triazol-5-yl)-N^6-(4-(3-methyl-2-(methylamino)butan-2-yl)pyridin-2-yl)-2,7-naphthyridine-1,6-diamine] | 0.03 nM
17 | CNC(C)(COC)c1ccnc(Nc2cc3cc(-c4cnnn4C)nc(N)c3cn2)c1 (single isomer, unassigned) [Example 32, N^6-(4-(1-methoxy-2-(methylamino)propan-2-yl)pyridin-2-yl)-3-(1-methyl-1H-1,2,3-triazol-5-yl)-2,7-naphthyridine-1,6-diamine] | 0.087 nM
18 | CNC(C)(COC)c1ccnc(Nc2cc3cc(-c4cnnn4C)nc(N)c3cn2)c1 (single isomer, unassigned) [Example 33, N^6-(4-(1-methoxy-2-(methylamino)propan-2-yl)pyridin-2-yl)-3-(1-methyl-1H-1,2,3-triazol-5-yl)-2,7-naphthyridine-1,6-diamine] | 0.25 nM
19 | CNC(c1ccnc(Nc2cc3cc(-c4cnnn4C)nc(N)c3cn2)c1)C(C)(C)C (single isomer, unassigned) [Example 34, N^6-(4-(2,2-dimethyl-1-(methylamino)propyl)pyridin-2-yl)-3-(1-methyl-1H-1,2,3-triazol-5-yl)-2,7-naphthyridine-1,6-diamine] | 0.23 nM
20 | CNC(c1ccnc(Nc2cc3cc(-c4cnnn4C)nc(N)c3cn2)c1)C(C)(C)C (single isomer, unassigned) [Example 35, N^6-(4-(2,2-dimethyl-1-(methylamino)propyl)pyridin-2-yl)-3-(1-methyl-1H-1,2,3-triazol-5-yl)-2,7-naphthyridine-1,6-diamine] | 0.32 nM
21 | CCC(N)(CC)c1cc(Nc2cc3cc(-c4cnnn4C)nc(N)c3cn2)ncn1 [Example 23, N^6-(6-(3-aminopentan-3-yl)pyrimidin-4-yl)-3-(1-methyl-1H-1,2,3-triazol-5-yl)-2,7-naphthyridine-1,6-diamine] | 0.057 nM
22 | CNC1(c2ccnc(Nc3cc4cc(-c5cnnn5C)nc(N)c4cn3)c2)CCC1 [Example 24, 3-(1-methyl-1H-1,2,3-triazol-5-y1)-N^6-(4-(1-(methylamino)cyclobutyl)pyridin-2-yl)-2,7-naphthyridine-1,6-diamine] | 0.089 nM
23 | CNC1(c2ccnc(Nc3cc4cc(-c5cnnn5C)nc(N)c4cn3)c2)CCCC1 [Example 27, 3-(1-methyl-1H-1,2,3-triazol-5-y1)-N^6-(4-(1-(methylamino)cyclopentyl)pyridin-2-yl)-2,7-naphthyridine-1,6-diamine] | 0.073 nM
24 | CN(C)C(C)(C)c1ccnc(Nc2cc3cc(-c4cnnn4C)nc(N)c3cn2)c1 [Example 36, N^6-(4-(2-(dimethylamino)propan-2-yl)pyridin-2-yl)-3-(1-methyl-1H-1,2,3-triazol-5-yl)-2,7-naphthyridine-1,6-diamine] | 0.061 nM
25 | CCn1nncc1-c1cc2cc(Nc3cc(C(C)(C)NC)ccn3)ncc2c(N)n1 [Example 37, 3-(1-ethyl-1H-1,2,3-triazol-5-yl)-N^6-(4-(2-(methylamino)propan-2-yl)pyridin-2-yl)-2,7-naphthyridine-1,6-diamine] | 0.059 nM
26 | CCn1nncc1-c1cc2cc(Nc3cc(C4(N)CCCC4)ccn3)ncc2c(N)n1 [Example 38, N^6-(4-(1-aminocyclopentyl)pyridin-2-yl)-3-(1-ethyl-1H-1,2,3-triazol-5-yl)-2,7-naphthyridine-1,6-diamine] | 0.019 nM
